Measurements: US8058242B2, “Chimeric proteins with natriuretic activity” (The University of Queensland, priority 2004, dated 2011)
Positions of bridges follow the written chain, without caps; N, C: chain ends. Residues, ends and D or L forms follow the SMILES beside them.

Legend:
[1] = tested on: rats with chronic heart failure; experiment: Rat model of chronic heart failure, left coronary artery occlusion, anesthetized (Example 10); conditions: HF rats
[2] = Stability assay in rat plasma (Example 6); assay type: in vitro ADME; conditions: 24 h at 37° C., read-out: peptide remaining in plasma
Procedure: (§1) Stability assay in human and rat plasma: Human or rat plasma (sample size 200 μL) was incubated at 37° C. for 5 min. 50 μL peptide stock solution (5 mg/mL) was added to the plasma. The vortexed reaction mixture was incubated at 37° C. Sample aliquots of 30 μL were taken from the reaction mixture at sequential intervals of 0 h, 1 h, 2 h, 4 h and 24 h and the sample reaction quenched immediately with 30 μL extraction buffer containing 50% Acetonitrile, 50% 0.1 M NaCl and 1% TFA. The quenched aliquots were cooled in ice for 5 min prior to centrifugation at 14,000 rpm for 15 min. 20 μl of the supernatant from each of the centrifuged aliquots was injected into RP-HPLC for analysis.

[3] = target: Endopeptidase (NEP) (EC 3.4.24.11) (Homo sapiens, UniProt P08473); experiment: Stability to enzymatic degradation by NEP (Examples 7, 16); assay type: in vitro ADME; conditions: over the 180 min measurement period, 37° C.
Chain of Endopeptidase (NEP) (EC 3.4.24.11) (P08473 whole entry): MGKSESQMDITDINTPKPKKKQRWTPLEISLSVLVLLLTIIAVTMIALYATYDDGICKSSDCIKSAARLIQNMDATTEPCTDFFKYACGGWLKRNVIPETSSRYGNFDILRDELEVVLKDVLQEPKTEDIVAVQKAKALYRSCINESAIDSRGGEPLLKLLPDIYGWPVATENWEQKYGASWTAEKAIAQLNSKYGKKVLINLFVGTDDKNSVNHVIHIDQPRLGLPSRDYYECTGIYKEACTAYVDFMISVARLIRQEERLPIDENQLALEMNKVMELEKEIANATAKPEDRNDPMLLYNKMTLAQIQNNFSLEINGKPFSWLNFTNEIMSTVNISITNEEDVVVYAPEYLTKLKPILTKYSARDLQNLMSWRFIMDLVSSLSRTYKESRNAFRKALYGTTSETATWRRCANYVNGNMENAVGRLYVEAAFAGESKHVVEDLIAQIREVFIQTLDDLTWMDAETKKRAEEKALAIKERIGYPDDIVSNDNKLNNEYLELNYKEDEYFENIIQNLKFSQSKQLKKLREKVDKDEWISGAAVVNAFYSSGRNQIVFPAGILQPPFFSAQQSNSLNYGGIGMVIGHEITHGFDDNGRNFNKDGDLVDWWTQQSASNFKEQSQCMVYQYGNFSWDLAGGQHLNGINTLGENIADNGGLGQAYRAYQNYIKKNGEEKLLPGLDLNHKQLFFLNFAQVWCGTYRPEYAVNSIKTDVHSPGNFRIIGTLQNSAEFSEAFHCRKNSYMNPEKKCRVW
Procedure: The incubation buffer contained 100 mM Tris/HCl and 150 mM NaCl and the pH was adjusted to 7.2-7.4. In each assay, 100 μl of peptide [500 μM] was incubated with 300 μl buffer (with 500 ng Endopeptidase (NEP) or 10 μg Plasmin) at 37° C. 50 μl aliquots were taken at times 5 min, 30 min, 60 min, 90 min, 180 min and 24 h. The reaction was quenched by heating to 100° C. for 4 min and the remaining peptide concentrations measured by RP-HPLC. Note that the levels of Plasmin required to degrade these peptides was several thousands time the levels present in human plasma.
The stability of TDT and was investigated using the same enzymatic degradation assays (NEP, plasmin, pepsin) disclosed in Example 7. […] It is also evident that the increased NEP stability cannot be explained by the length of the tail region alone as the NEP cleavage site residues at the N-terminal end of the loop region.

[4] = Stability assay in human plasma (Example 6); assay type: in vitro ADME; conditions: 24 h at 37° C., read-out: peptide remaining in plasma
Procedure: Plasma preparation: Blood samples (from healthy human volunteers) were drawn into a sealed tube containing ethylene diamine tetra-acetic acid (EDTA). After sampling, the plasma was separated by centrifugation at 14,000 rpm for 30 min. Plasma was taken out and stored in separated Eppendorf tubes at −20° C.
as §1

rat GC-A = target: T1, rat GC-A (Rattus norvegicus, UniProt P18910); experiment: Cell cyclic GMP elevations in HEK-293 cells stably expressing rat GC-A (Example 4); assay type: cell-based; conditions: 0.1 μM; 293 cells over-expressing GC-A
T1 construct: expressed in transfected cells
T1 sequence (P18910 29-1057): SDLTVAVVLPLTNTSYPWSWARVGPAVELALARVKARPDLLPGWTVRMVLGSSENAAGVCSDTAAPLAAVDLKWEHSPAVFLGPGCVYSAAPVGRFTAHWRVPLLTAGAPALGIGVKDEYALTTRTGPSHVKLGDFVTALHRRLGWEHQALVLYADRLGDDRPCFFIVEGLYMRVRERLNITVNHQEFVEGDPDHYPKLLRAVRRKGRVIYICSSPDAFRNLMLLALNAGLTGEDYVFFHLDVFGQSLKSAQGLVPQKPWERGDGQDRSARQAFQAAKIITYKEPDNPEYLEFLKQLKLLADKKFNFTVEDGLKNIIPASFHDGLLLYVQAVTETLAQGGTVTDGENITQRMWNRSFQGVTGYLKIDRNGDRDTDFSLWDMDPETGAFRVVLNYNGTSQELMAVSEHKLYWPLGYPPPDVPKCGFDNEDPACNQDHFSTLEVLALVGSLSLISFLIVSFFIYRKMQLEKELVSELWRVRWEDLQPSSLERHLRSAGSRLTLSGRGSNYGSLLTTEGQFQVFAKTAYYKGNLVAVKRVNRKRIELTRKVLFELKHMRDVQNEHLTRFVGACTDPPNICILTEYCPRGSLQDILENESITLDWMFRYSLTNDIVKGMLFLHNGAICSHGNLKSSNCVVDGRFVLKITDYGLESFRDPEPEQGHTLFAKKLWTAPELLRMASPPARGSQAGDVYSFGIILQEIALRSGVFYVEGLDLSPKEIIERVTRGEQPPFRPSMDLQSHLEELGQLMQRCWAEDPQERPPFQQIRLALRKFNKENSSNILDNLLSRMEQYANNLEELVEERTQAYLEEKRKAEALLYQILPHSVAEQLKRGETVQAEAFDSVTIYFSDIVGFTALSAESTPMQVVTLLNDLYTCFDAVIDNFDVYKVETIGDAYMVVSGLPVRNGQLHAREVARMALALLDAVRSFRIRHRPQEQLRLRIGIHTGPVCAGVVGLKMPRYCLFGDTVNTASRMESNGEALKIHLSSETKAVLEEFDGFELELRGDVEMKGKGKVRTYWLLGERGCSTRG
Source text: The human embryonic kidney 293 (HEK-293) cell line was used for the stable expression of rat GC-A (GC-A/293). Cells expressing rat GC-A (GC-A/293) in the HEK-293 cell line were as previously described (Potter L. R., and Garbers D. L., (1992), J Biol Chem. 26, 14531-4) and determination of cGMP elevations was undertaken as previously described (Chrisman et al. T. D., Schulz, S., Potter, L. R. and Garbers, D. L., (1993,) J. Biol. Chem. (1993) 268 (5), 3698-3703). Responses were expressed as a percentage of the effect produced by ANP.

Question: With CC[C@H](C)[C@H](NC(=O)[C@H](CCCCN)NC(=O)[C@H](CO)NC(=O)[C@H](CC(=O)O)NC(=O)[C@@H](N)CO)C(=O)NCC(=O)N[C@@H](CC(N)=O)C(=O)NCC(=O)N[C@H]1CSSC[C@@H](C(=O)N[C@@H](CC(N)=O)C(=O)N[C@@H](CCCNC(=N)N)C(=O)N[C@H](C(=O)N[C@@H](CCSC)C(=O)N[C@@H](CCC(N)=O)C(=O)N[C@@H](CC(N)=O)C(=O)N2CCC[C@H]2C(=O)N2CCC[C@H]2C(=O)N[C@@H](CCCCN)C(=O)N[C@@H](CCCCN)C(=O)N[C@@H](Cc2ccccc2)C(=O)N[C@@H](CO)C(=O)NCC(=O)N[C@@H](CCC(=O)O)C(=O)O)[C@@H](C)CC)NC(=O)CNC(=O)[C@H](CC(C)C)NC(=O)CNC(=O)[C@H](CO)NC(=O)[C@H](C(C)C)NC(=O)[C@H](CO)NC(=O)CNC(=O)[C@H]([C@@H](C)CC)NC(=O)[C@H](CCCNC(=N)N)NC(=O)[C@H](CC(=O)O)NC(=O)[C@H](CC(C)C)NC(=O)[C@@H]2CCCN2C(=O)[C@H](Cc2ccccc2)NC(=O)CNC(=O)[C@H](Cc2ccccc2)NC1=O [TNPc] (H-SDSKIGNGCFGFPLDRIGSVSGLGCNRIMQNPPKKFSGE-OH; disulfide 9-25) as the compound, how does the “Blood Flow, mean change from control” value ([1]; 50 pmol/kg/min, 30 min) read?
Answer: -1.6 mL/min

Question: What about the “Conductance, mean change from control” value ([1]; 50 pmol/kg/min, 30 min) of the same compound?
Answer: −0.2 ml/min/mmHg

Question: And the “Diastolic LVP, mean change from control” value ([1]; 50 pmol/kg/min, 30 min)?
Answer: −0.9 mmHg

Question: What about the “HCT, mean change from control” value ([1]; 50 pmol/kg/min, 30 min) of the same compound?
Answer: 1.5%

Question: What about the “HR, mean change from control” value ([1]; 50 pmol/kg/min, 30 min) of the same compound?
Answer: −5.2 bpm

Question: And the “Mean BP, mean change from control” value ([1]; 50 pmol/kg/min, 30 min)?
Answer: −11.8 mmHg

Question: What about the “Urine Flow, mean change from control” value ([1]; 50 pmol/kg/min, 30 min) of the same compound?
Answer: 1.0 mL/h

Question: What about the “Blood Flow, mean change from control” value ([1]; 100 pmol/kg/min, 30 min) of the same compound?
Answer: -2.9 mL/min

Question: And the “Conductance, mean change from control” value ([1]; 100 pmol/kg/min, 30 min)?
Answer: −0.4 ml/min/mmHg

Question: And the “Diastolic LVP, mean change from control” value ([1]; 100 pmol/kg/min, 30 min)?
Answer: −1.6 mmHg

Question: And the “HCT, mean change from control” value ([1]; 100 pmol/kg/min, 30 min)?
Answer: 2.4%

Question: What about the “HR, mean change from control” value ([1]; 100 pmol/kg/min, 30 min) of the same compound?
Answer: −14.8 bpm

Question: What about the “Mean BP, mean change from control” value ([1]; 100 pmol/kg/min, 30 min) of the same compound?
Answer: −20.1 mmHg

Question: And the “Urine Flow, mean change from control” value ([1]; 100 pmol/kg/min, 30 min)?
Answer: 1.7 mL/h

Question: And the “Blood Flow, mean change from control” value ([1]; Recovery)?
Answer: -0.5 mL/min

Question: And the “Conductance, mean change from control” value ([1]; Recovery)?
Answer: 0.6 ml/min/mmHg

Question: And the “Diastolic LVP, mean change from control” value ([1]; Recovery)?
Answer: −1.4 mmHg

Question: And the “HCT, mean change from control” value ([1]; Recovery)?
Answer: 0.8%

Question: What about the “HR, mean change from control” value ([1]; Recovery) of the same compound?
Answer: −16.5 bpm

Question: And the “Mean BP, mean change from control” value ([1]; Recovery)?
Answer: −13.6 mmHg

Question: What about the “Urine Flow, mean change from control” value ([1]; Recovery) of the same compound?
Answer: 0.9 mL/h

Question: And the “Blood Flow, Average drug response SED” value ([1]; average of the two doses)?
Answer: -2.2 ± 0.5 mL/min

Question: And the “Conductance, Average drug response SED” value ([1]; average of the two doses)?
Answer: −0.3 ± 0.3 ml/min/mmHg

Question: What about the “Diastolic LVP, Average drug response SED” value ([1]; average of the two doses) of the same compound?
Answer: −1.2±0.5 mmHg

Question: And the “HCT, Average drug response SED” value ([1]; average of the two doses)?
Answer: 1.9 ± 0.5%

Question: And the “HR, Average drug response SED” value ([1]; average of the two doses)?
Answer: −10.0 ± 6.9 bpm

Question: And the “Mean BP, Average drug response SED” value ([1]; average of the two doses)?
Answer: −15.9±4.1 mmHg

Question: And the remaining at 24 h, 1 mg/mL [2]?
Answer: 76%

Question: What about the “degradation by NEP” value [3] of the same compound?
Answer: did not show any degradation

Question: What about the remaining at 24 h, 1 mg/mL [4] of the same compound?
Answer: 72%

Question: And the “cGMP elevations, percentage of the effect produced by ANP” value (rat GC-A)?
Answer: equipotent to ANP and DNP
